Laboratory results: patent US9650616B2, “Methods for increasing grain yield” (University of Florida Research Foundation, Inc., priority 2014, dated 2017)
Substitutions are numbered along the chain they refer to.

Experiments:
[1] = target: T1, maize endosperm AGPase, large subunit variant GGR (Q96G, D161G, A443R; numbering of SEQ ID NO: 20) (Zea mays, UniProt P55241+Q84PF5, A443R/D161G/Q96G); assay: Pi inhibition in the presence of 3-PGA, GGR; assay type: biochemical; details: read-out: Km (ATP), presence of 3-PGA, ATP varied, Pi inhibition, L-MT
T1 sequence (P55241 46-516 A443R/D161G/Q96G): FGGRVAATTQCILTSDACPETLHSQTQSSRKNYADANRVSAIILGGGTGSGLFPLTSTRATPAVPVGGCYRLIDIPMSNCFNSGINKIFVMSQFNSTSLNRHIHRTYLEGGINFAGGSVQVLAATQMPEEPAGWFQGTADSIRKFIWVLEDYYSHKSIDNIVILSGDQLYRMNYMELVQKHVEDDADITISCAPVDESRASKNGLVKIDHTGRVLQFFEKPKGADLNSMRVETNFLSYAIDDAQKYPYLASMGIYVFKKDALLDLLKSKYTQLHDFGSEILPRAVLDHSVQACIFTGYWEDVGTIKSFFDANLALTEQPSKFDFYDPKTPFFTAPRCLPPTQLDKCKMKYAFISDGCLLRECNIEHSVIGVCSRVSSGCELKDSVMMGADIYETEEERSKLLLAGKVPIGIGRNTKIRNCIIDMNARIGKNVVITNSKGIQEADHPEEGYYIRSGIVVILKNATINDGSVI
T1 sequence (Q84PF5 1-474): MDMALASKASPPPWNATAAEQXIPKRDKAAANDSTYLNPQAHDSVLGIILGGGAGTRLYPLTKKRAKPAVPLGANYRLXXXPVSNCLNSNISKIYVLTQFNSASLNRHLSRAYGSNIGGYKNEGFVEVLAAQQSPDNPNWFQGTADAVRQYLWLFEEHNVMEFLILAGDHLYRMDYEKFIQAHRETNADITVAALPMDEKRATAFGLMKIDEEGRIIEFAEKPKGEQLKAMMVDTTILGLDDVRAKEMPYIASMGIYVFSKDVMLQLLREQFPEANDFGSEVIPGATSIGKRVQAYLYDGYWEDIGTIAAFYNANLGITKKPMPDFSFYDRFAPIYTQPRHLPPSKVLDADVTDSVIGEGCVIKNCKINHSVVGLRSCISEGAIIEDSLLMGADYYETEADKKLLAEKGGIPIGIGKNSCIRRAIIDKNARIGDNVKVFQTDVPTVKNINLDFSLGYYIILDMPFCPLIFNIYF
Excerpt: Inhibition by Pi was then followed in the presence of the activator 3-PGA.

[2] = system: maize endosperm AGPase, evolutionary mutant SH2-E (SH2E); details: presence of 3-PGA, ATP varied, Pi inhibition, NC, read-out: Km (ATP); cited from earlier work
[3] = target: T2, maize endosperm AGPase, large subunit variant RG (Q96R, D161G; numbering of SEQ ID NO: 20) (Zea mays, UniProt P55241+Q84PF5, D161G/Q96R); assay: Apparent kinetic constants with 3-PGA, 37° C., RG; assay type: biochemical; details: read-out: ATP Km
T2 sequence (P55241 46-516 D161G/Q96R): T1 sequence (P55241 46-516 A443R/D161G/Q96G) with G51R, R398A
T2 sequence (Q84PF5 1-474): T1 sequence (Q84PF5 1-474)
Excerpt: The small and large subunit plasmids of maize endosperm AGPase (pMONcBt2 and pMONcSh2, respectively) (Giroux et al., 1996) were expressed in E. coli AC70R1-504 cells (Iglesias et al., 1993) as previously described (Boehlein et al., 2008).
An endpoint assay was used to determine the rate of the AGPase reaction by coupling the formation of PPi to a decrease in NADH concentration (Boehlein et al., 2008). […] The Michaelis constants (Km) were obtained by varying one substrate in the presence of saturating concentrations of the second substrate. The activation constants were obtained by varying the activator at fixed levels of both substrates. All reactions were performed at 37° C. and mixes were prewarmed before starting the reaction with enzyme. […] The absorbance at 340 nm was monitored after 30 min and the amount of PPi produced was determined from a standard curve using PPi in complete reaction mixtures lacking AGPase. Blank samples contained complete reaction mixtures without enzyme and the change in absorbance between the blank and the reaction was used to calculate the amount of PPi produced. […]
The apparent Michaelis constant and maximum velocity of each reaction was calculated from a V vs. S plots using nonlinear regression analysis and the following equation, v=VmaxS/(Km+S), where v is the measured velocity, Vmax is the maximum velocity, S is the substrate concentration. […]

Question: Which results are given for `Nc1ncnc2c1ncn2[C@@H]1O[C@H](COP(=O)(O)OP(=O)(O)OP(=O)(O)O)[C@@H](O)[C@H]1O` [ATP]?
Answer: Km [1]: 110 µM; Km [2]: 210 µM; Km [3]: 63 µM
